Values of other authors in patent publication US20210330903A1, “Multiple Dose Nasal Spray of Naloxone” (Navinta III Inc, priority 2020, published 2021).

SMILES: C=CCN1CC[C@]23c4c5ccc(O)c4O[C@H]2C(=O)CC[C@@]3(O)[C@H]1C5.Cl [Naloxone hydrochloride, 17-Allyl-4,5α-epoxy-3,14 dihydroxymorphinan-6-one hydrochloride]
- solubility in alcohol (alcohol): slightly soluble
- solubility in chloroform (chloroform): practically insoluble
- solubility in dilute acids (dilute acids): soluble
- solubility in ether (ether): practically insoluble
- solubility in strong alkali (strong alkali): soluble
- solubility in water (water): soluble
